From ChEMBL document CHEMBL3232769, “Design and synthesis of conformationally restricted inhibitors of active thrombin activatable fibrinolysis inhibitor (TAFIa)” (Bioorg Med Chem, 2014)

Target: T1, Carboxypeptidase B2 (Homo sapiens, UniProt Q96IY4)
T1 sequence (Q96IY4 whole entry): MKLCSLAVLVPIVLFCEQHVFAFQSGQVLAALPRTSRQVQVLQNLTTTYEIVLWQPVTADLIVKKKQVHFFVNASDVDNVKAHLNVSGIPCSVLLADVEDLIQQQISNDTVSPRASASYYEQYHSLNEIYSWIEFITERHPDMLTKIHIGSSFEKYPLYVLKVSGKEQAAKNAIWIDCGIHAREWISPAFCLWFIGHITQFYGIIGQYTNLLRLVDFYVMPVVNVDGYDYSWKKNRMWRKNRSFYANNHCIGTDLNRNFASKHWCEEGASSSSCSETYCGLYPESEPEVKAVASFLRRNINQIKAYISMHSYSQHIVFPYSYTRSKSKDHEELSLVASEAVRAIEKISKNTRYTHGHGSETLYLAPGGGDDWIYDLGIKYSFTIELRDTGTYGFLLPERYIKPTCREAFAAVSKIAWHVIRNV
Test: Inhibition of […] in human plasma assessed as clot lysis
Settings: not given

IC50 [µM] | SMILES
0.08 | NCCC[C@@]1(C(=O)O)CCc2c(ncn2C2CCCCC2)C1
3.2 | Cl.NCCC[C@@]1(C(=O)O)CCn2c(-c3cccc(-c4ccc(Cl)cc4Cl)c3)cnc2C1
8 | CCCn1cnc(CC(NCCN)C(=O)O)c1 (stereo not drawn)
1.3 | NCCC[C@@]1(C(=O)O)CCn2c(-c3ccccc3)cnc2C1
> 100 | CCc1cnc2n1CCC(CCCN)(C(=O)O)C2 (racemic)

Continued, molecule first:

SMILES | IC50 [µM]
NCCC[C@@]1(C(=O)O)CCc2c(ncn2Cc2cccc(-c3ccccc3)c2)C1 | 2.5
NCCCC1(C(=O)O)CCc2c(ncn2-c2ccccc2)C1 (racemic) | 7.1
CCCn1cnc(C[C@H](CCCN)C(=O)O)c1 [UK-396,082] | 5
C[C@@H](S)[C@@H](Cc1ccc(N)nc1)C(=O)O | 0.4
CC(C)CCn1cnc2c1CC[C@@](CCCN)(C(=O)O)C2.Cl | 0.1
NCCCC1(C(=O)O)CCc2c(ncn2CCC2CCC(C3CCCCC3)CC2)C1 (racemic) | 16

Test system: not listed separately
Test: Lipophilicity, log D of the compound at pH 7.4
Settings: buffer

logD | SMILES
< 0 | NCCC[C@@]1(C(=O)O)CCc2c(ncn2C2CCCCC2)C1
2.4 | Cl.NCCC[C@@]1(C(=O)O)CCn2c(-c3cccc(-c4ccc(Cl)cc4Cl)c3)cnc2C1
< 0 | NCCC[C@@]1(C(=O)O)CCn2c(-c3ccccc3)cnc2C1

Further lines, the molecule ahead of its results:

SMILES | logD
NCCC[C@@]1(C(=O)O)CCc2c(ncn2Cc2cccc(-c3ccccc3)c2)C1 | 1
CCCn1cnc2c1CC[C@@](CCCN)(C(=O)O)C2 | < 0
CC(C)CCn1cnc2c1CC[C@@](CCCN)(C(=O)O)C2.Cl | < 0
NCCCC1(C(=O)O)CCc2c(ncn2CCC2CCC(C3CCCCC3)CC2)C1 (racemic) | 3.6

Test system: not listed separately
Test: Clearance in dog
Type: ADME, organism-based, Canis lupus familiaris
Settings: in vivo

clearance [mL/min/kg] | SMILES
3.5 | NCCC[C@@]1(C(=O)O)CCc2c(ncn2C2CCCCC2)C1

Target: T1, Carboxypeptidase B2
Test: Inhibition of human TAF1a
Settings: not given

IC50 [µM] | SMILES
0.117 | NCCC[C@@]1(C(=O)O)CCc2c(ncn2C2CCCCC2)C1
< 0.041 | Cl.NCCC[C@@]1(C(=O)O)CCn2c(-c3cccc(-c4ccc(Cl)cc4Cl)c3)cnc2C1
0.066 | NCCC[C@@]1(C(=O)O)CCn2c(-c3ccccc3)cnc2C1
2.27 | CCc1cnc2n1CCC(CCCN)(C(=O)O)C2 (racemic)

Second part, the molecule before the results:

SMILES | IC50 [µM]
NCCC[C@@]1(C(=O)O)CCc2c(ncn2Cc2cccc(-c3ccccc3)c2)C1 | 0.106
NCCCC1(C(=O)O)CCc2c(ncn2-c2ccccc2)C1 (racemic) | 0.585
CC(C)CCn1cnc2c1CC[C@@](CCCN)(C(=O)O)C2.Cl | < 0.041
NCCCC1(C(=O)O)CCc2c(ncn2CCC2CCC(C3CCCCC3)CC2)C1 (racemic) | 0.124

Target: T1, Carboxypeptidase B2
Test: Inhibition of human […] using hippuryl-L-arginine/hippuryl-L-lysine as substrate by liquid chromatographic analysis
Settings: not given

IC50 [µM] | SMILES
0.45 | CCCn1cnc(C[C@H](CCCN)C(=O)O)c1 [UK-396,082]
0.62 | CCCn1cnc(CC(NCCN)C(=O)O)c1 (stereo not drawn)
0.087 | C[C@@H](S)[C@@H](Cc1ccc(N)nc1)C(=O)O

Target: Phosphodiesterase 4 (Homo sapiens) (UniProt P27815+Q08499+Q07343+Q08493)
Test: Inhibition of PDE4 (unknown origin) at 10 uM
Type: protein assay
Settings: not given

inhibition [%] | SMILES
79 | NCCC[C@@]1(C(=O)O)CCc2c(ncn2C2CCCCC2)C1
79 | NCCC[C@@]1(C(=O)O)CCn2c(-c3ccccc3)cnc2C1

Target: T2, Carboxypeptidase N catalytic chain (Homo sapiens, UniProt P15169)
T2 sequence (P15169 whole entry): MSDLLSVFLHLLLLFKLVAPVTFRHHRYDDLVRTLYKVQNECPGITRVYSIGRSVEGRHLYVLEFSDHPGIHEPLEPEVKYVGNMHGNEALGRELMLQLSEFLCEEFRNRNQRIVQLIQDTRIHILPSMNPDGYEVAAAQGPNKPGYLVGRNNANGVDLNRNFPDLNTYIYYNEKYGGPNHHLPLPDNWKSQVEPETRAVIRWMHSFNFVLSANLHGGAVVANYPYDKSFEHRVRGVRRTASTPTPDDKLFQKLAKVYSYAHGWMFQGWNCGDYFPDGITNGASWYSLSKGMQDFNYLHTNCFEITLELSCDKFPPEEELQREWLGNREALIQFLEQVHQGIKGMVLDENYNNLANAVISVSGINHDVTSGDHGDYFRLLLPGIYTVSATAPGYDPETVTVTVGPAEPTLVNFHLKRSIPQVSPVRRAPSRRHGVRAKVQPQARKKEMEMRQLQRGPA
Test: Inhibition of carboxypeptidase N (unknown origin)
Settings: not given

IC50 [µM] | SMILES
> 1000 | NCCC[C@@]1(C(=O)O)CCc2c(ncn2C2CCCCC2)C1
> 1000 | Cl.NCCC[C@@]1(C(=O)O)CCn2c(-c3cccc(-c4ccc(Cl)cc4Cl)c3)cnc2C1
> 1000 | NCCC[C@@]1(C(=O)O)CCn2c(-c3ccccc3)cnc2C1
> 1000 | CCc1cnc2n1CCC(CCCN)(C(=O)O)C2 (racemic)

The remaining lines, values behind:

SMILES | IC50 [µM]
NCCC[C@@]1(C(=O)O)CCc2c(ncn2Cc2cccc(-c3ccccc3)c2)C1 | > 1000
NCCCC1(C(=O)O)CCc2c(ncn2-c2ccccc2)C1 (racemic) | > 1000
CCCn1cnc2c1CC[C@@](CCCN)(C(=O)O)C2 | > 1000
CC(C)CCn1cnc2c1CC[C@@](CCCN)(C(=O)O)C2.Cl | > 1000
NCCCC1(C(=O)O)CCc2c(ncn2CCC2CCC(C3CCCCC3)CC2)C1 (racemic) | > 1000

Test system: not listed separately
Test: Tmax in rat
Type: ADME, organism-based
Settings: in vivo

Tmax [min] | SMILES
60 | CCCn1cnc(C[C@H](CCCN)C(=O)O)c1 [UK-396,082]
12 | CCCn1cnc2c1CC[C@@](CCCN)(C(=O)O)C2
30 | C[C@@H](S)[C@@H](Cc1ccc(N)nc1)C(=O)O

Test system: not listed separately
Test: Clearance in rat
Type: ADME, organism-based
Settings: in vivo

clearance [mL/min/kg] | SMILES
6.2 | NCCC[C@@]1(C(=O)O)CCc2c(ncn2C2CCCCC2)C1
12 | NCCC[C@@]1(C(=O)O)CCn2c(-c3ccccc3)cnc2C1

The remaining lines, values behind:

SMILES | clearance [mL/min/kg]
CCCn1cnc(C[C@H](CCCN)C(=O)O)c1 [UK-396,082] | 2
CCCn1cnc2c1CC[C@@](CCCN)(C(=O)O)C2 | 6
C[C@@H](S)[C@@H](Cc1ccc(N)nc1)C(=O)O | 27

Test system: not listed separately
Test: Oral bioavailability in rat at 6.8 umol/kg
Type: ADME, organism-based
Settings: in vivo

bioavailability [%] | SMILES
8 | CCCn1cnc2c1CC[C@@](CCCN)(C(=O)O)C2

Test system: not listed separately
Test: Oral bioavailability in rat
Type: ADME, organism-based
Settings: in vivo

bioavailability [%] | SMILES
1.4 | NCCC[C@@]1(C(=O)O)CCc2c(ncn2C2CCCCC2)C1
0.9 | Cl.NCCC[C@@]1(C(=O)O)CCn2c(-c3cccc(-c4ccc(Cl)cc4Cl)c3)cnc2C1
4.9 | NCCC[C@@]1(C(=O)O)CCn2c(-c3ccccc3)cnc2C1

Continued, molecule first:

SMILES | bioavailability [%]
NCCC[C@@]1(C(=O)O)CCc2c(ncn2Cc2cccc(-c3ccccc3)c2)C1 | 1.7
C[C@@H](S)[C@@H](Cc1ccc(N)nc1)C(=O)O | 75
CC(C)CCn1cnc2c1CC[C@@](CCCN)(C(=O)O)C2.Cl | 1.4

Test system: not listed separately
Test: Oral bioavailability in rat at 20 umol/kg
Type: ADME, organism-based
Settings: in vivo

bioavailability [%] | SMILES
8 | CCCn1cnc(C[C@H](CCCN)C(=O)O)c1 [UK-396,082]
2 | CCCn1cnc2c1CC[C@@](CCCN)(C(=O)O)C2
